# Results from patent US7445931B2, “Compositions and methods for enrichment of neural stem cells using ceramide analogs” (Bresagen, Inc., priority 2002, dated 2008).
# Assays:
# [1] = test system: EB8-derived cells; assay: Injection of ceramide analog treated EB8-derived cells into mouse brain, teratoma formation; assay type: in vivo, C57BL6 mice
# Description: In vitro differentiating ES cells at stage EB8 were incubated for […] with 75 μM S18, or 35 μM N-acyl sphingosine or other ceramide analogs. Protein was isolated from cells incubated with S18 for 24 hours and from untreated cells, separated by SDS-PAGE, and the expression of Oct-4 was analyzed by immunoblotting.
# Prior to injection into the mouse brain, ES cells were labeled with Vybrant-DiI (rhodamine fluorescence) for permanent vital staining and were mixed with India ink in order to track the injection channel and cell migration/tissue integration. 1×10^4 of the untreated ES-J1 cells were injected, while 2×10^4 of the S18-treated cells were injected in order to control for the percentage of cells lost to apoptosis. The ES cells were injected into the right brain hemisphere (bregma—1.5 mm, 1 mm lateral of central suture, 2.0 mm deep) of 8-10 day old C57BL6 mice using a Hamilton syringe. After 7-21 days, the mice were sacrificed, the brain isolated and fixed with 10% PBS-buffered formalin. The brains were Vibratome sectioned at 100 μm. The distribution of the injected cells was determined by fluorescence microscopy.
# [2] = test system: seeded sfEBMs derived from HESC colonies; assay: S18 treatment of seeded serum free embryoid bodies (sfEBMs), morphology and DAPI staining; assay type: cell-based, human
# Description: sfEBMs were derived from domed HESC colonies, grown in suspension for 24 days with one passage, and seeded to polyornithine/laminin coated chamber slides in DMEM/F12, supplemented with 1×N2 (Gibco), and 1% FCS.
# Apoptosis in seeded serum free embryoid bodies was monitored by morphological observation of cell death and DAPI staining to reveal apoptotic nuclei. Apoptotic nuclei were observed as obviously fragmented and degenerating nuclei, with small punctuate patterns of DAPI staining. Rosette regions from essentially serum free embryoid bodies in suspension were passaged further in the same medium, either withdrawing S18 or culturing the embryoid bodies for an additional 4 to 8 days in the presence of S18. Rosette regions were then seeded onto polyornithine/laminin coated slides for analysis of proliferation and differentiation to neural lineages.
# [3] = test system: differentiating ES cells (NPs), PAR-4; assay: S18-induced apoptosis (TUNEL) in NPs after PAR-4 antisense knockdown or PAR-4-RFP overexpression; assay type: cell-based, mouse
# Description: For construction of PAR-4-REP cDNA, RT-PCR was performed with the oligonucleotide primer pair sense 5′atggcgaccggcggctatcg3′ (SEQ ID NO:14) and antisense 5′ctaccttgtcagctgcccaacaac3′(SEQ ID NO:15), using the first strand cDNA generated from embryoid bodies (EB8 stage) as template for the amplification reaction. The primers were endowed with the restriction enzyme cleaving sites Eco47III (sense) and SaII (antisense) for ligation of the PAR-4 specific amplification product into the multiple cloning site of HcRFP, a vector that encodes a far-red shifted variant of red fluorescent protein (Clontech). Differentiating ES cells at the NP1 stage were transfected with the PAR-4-RFP construct using the lipofectamine 2000 procedure according to the manufacturer's instructions (Invitrogen). The transfected cells were incubated in DMEM F12 (50/50), supplemented with 1×N2 and 20 ng/ml FGF-2, and the TUNEL assay or immunostainings were performed after 48 hours of incubation and NP formation. For depletion of ceramide, differentiating ES cell were incubated with 25 μM fumonisin B1 or 50 nM myriocin 48 hours prior to transfection with the PAR-4-RFP vector, and the inhibitor maintained in the medium throughout the post-transfection period. For induction of apoptosis, the novel ceramide analog S18 (40-100 μM), N-acetyl sphingosine (C2-ceramide, 10-30 μM), or natural ceramide isolated from EBs (0.5-1.5 μM) was added 48 hours after transfection with the PAR-4-RFP cDNA, and the degree of apoptosis quantified after 15-20 hours using TUNEL assays with paraformaldehyde-fixed cells as described above.
# Endogenous expression of PAR-4 was suppressed by transfection of differentiating ES cells at the NP1 stage with 2 nmoles (per well in 24 wells plate) of the morpholino-based antisense oligonucleotide 5′cgatagccgccggtcgccatgttcc3′(SEQ ID NO:16) (see Guo et al., 1998, Nature Med., 4:957-962; Guo et al., 2001 Brain Res, 903:13-25) following the instructions of the manufacturer (GeneTools) in 0.5 ml of serum-free DMEM/F-12, 1XN2 supplemented with 20 ng/ml FGF-2. For induction of apoptosis, the novel ceramide analog S18 (40-100), N-acetyl sphingosine (C2 ceramide, […], or natural ceramide isolated from EBs (0.5-1.5 μM) was added 48 hours after transfection with the anti-PAR-4 morpholino, and the degree of apoptosis quantified after 15-20 hours using TUNEL assays with paraformaldehyde-fixed cells as described above.
smiles,measurement,setting,value
"CCCCCCCC/C=C\CCCCCCCC(=O)NC(CO)CO [S18, N-(2-hydroxy-1-(hydroxymethyl)ethyl)-oleoylamide]",teratoma formation,"[1]; EB8-derived cells treated with S18, injected into mouse brain, ten days after injection",did not show teratoma formation
same,migration and integration of injected cells,"[1]; S18-treated EB8-derived cells, Vybrant diI stained, host killed after 21 days","migrated to the hippocampus, and integrated into the host's brain tissue"
same,time until effect was observed,"[2]; 6, 8 or 10 μM S18",≤ 24 h
same,effect on neural rosette structures,"[2]; 6, 8 or 10 μM S18 for 36 hours",did not appear to be adversely affected
same,induction of apoptosis in the culture,"[2]; 6, 8 or 10 μM S18 for 36 hours",induced apoptosis of a large proportion of the culture
same,cell death,[2]; 36 hours exposure to 6 μM S18,a high proportion of cells within these cultures have been killed
same,cell death,[2]; 36 hours exposure to 8 μM S18,a high degree of cell death is apparent
same,ceramide analog-induced apoptosis in untransfected or mock (RFP)-transfected cells,[3]; 40 μM S18,no or only a low degree
same,number of apoptotic cells,"[3]; 80 μM S18, control morpholino-transfected and untransfected NPs",more than 80%
same,apoptosis in PAR-4-RFP transfected cells,"[3]; myriocin-treated ES cells transfected at NP1 stage, 40 μM S18",apoptosis was observed
